Measured values as given in PubChem BioAssay (NCI).
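Cells were grown in 96-well plates and exposed to each compound for 48 hours at five concentrations; endpoints were interpolated linearly between bracketing concentrations, or set to the highest concentration if not reached. Abbreviation: GI50, concentration required for 50% inhibition of growth. The concentration for full growth arrest is given as TGI.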

Key:
Assay in all cases: inhibition of tumour cell growth, NCI panel, 48 h; in the data active means GI50 below about 0.43 µM; inactive means the rest
NCI-H522 lung = tested on: NCI-H522 lung
MCF7 breast = tested on: MCF7 breast
SK-OV-3 ovarian = tested on: SK-OV-3 ovarian
SF-295 CNS = tested on: SF-295 CNS
NCI-H226 lung = tested on: NCI-H226 lung
NCI-H460 lung = tested on: NCI-H460 lung
NCI/ADR-RES ovarian = tested on: NCI/ADR-RES ovarian
MOLT-4 leukemia = tested on: MOLT-4 leukemia
SF-268 CNS = tested on: SF-268 CNS
HL-60(TB) leukemia = tested on: HL-60(TB) leukemia
T-47D breast = tested on: T-47D breast
OVCAR-3 ovarian = tested on: OVCAR-3 ovarian
SNB-75 CNS = tested on: SNB-75 CNS
DU-145 prostate = tested on: DU-145 prostate
SK-MEL-28 melanoma = tested on: SK-MEL-28 melanoma
HCT-15 colon = tested on: HCT-15 colon
A549 NSCLC = tested on: A549 NSCLC
SN12C renal = tested on: SN12C renal
HOP-92 NSCLC = tested on: HOP-92 NSCLC
M14 melanoma = tested on: M14 melanoma
SNB-19 CNS = tested on: SNB-19 CNS
COLO 205 colon = tested on: COLO 205 colon
MALME-3M melanoma = tested on: MALME-3M melanoma
SW-620 colon = tested on: SW-620 colon
SR leukemia = tested on: SR leukemia
NCI-H23 lung = tested on: NCI-H23 lung
KM12 colon = tested on: KM12 colon
MDA-MB-231 breast = tested on: MDA-MB-231 breast
TK-10 renal = tested on: TK-10 renal
OVCAR-5 ovarian = tested on: OVCAR-5 ovarian
UACC-62 melanoma = tested on: UACC-62 melanoma
RPMI-8226 leukemia = tested on: RPMI-8226 leukemia
A498 renal = tested on: A498 renal
OVCAR-8 ovarian = tested on: OVCAR-8 ovarian
CCRF-CEM leukemia = tested on: CCRF-CEM leukemia
BT-549 breast = tested on: BT-549 breast
OVCAR-4 ovarian = tested on: OVCAR-4 ovarian
HCT-116 colon = tested on: HCT-116 colon
MDA-MB-435 = tested on: MDA-MB-435
CAKI-1 renal = tested on: CAKI-1 renal
SK-MEL-2 melanoma = tested on: SK-MEL-2 melanoma
HOP-62 NSCLC = tested on: HOP-62 NSCLC
UO-31 renal = tested on: UO-31 renal
HCC-2998 colon = tested on: HCC-2998 colon
HS 578T breast = tested on: HS 578T breast
UACC-257 melanoma = tested on: UACC-257 melanoma
786-0 renal = tested on: 786-0 renal
K-562 leukemia = tested on: K-562 leukemia
IGROV1 ovarian = tested on: IGROV1 ovarian
EKVX NSCLC = tested on: EKVX NSCLC
SF-539 CNS = tested on: SF-539 CNS
PC-3 prostate = tested on: PC-3 prostate
SK-MEL-5 melanoma = tested on: SK-MEL-5 melanoma
ACHN renal = tested on: ACHN renal
HT29 colon = tested on: HT29 colon
LOX IMVI melanoma = tested on: LOX IMVI melanoma
RXF 393 renal = tested on: RXF 393 renal
U251 CNS = tested on: U251 CNS

O=C(O)CCN(CCC(=O)O)c1ccc(/C=C2\SC(=S)NC2=O)cc1
> 100 µM: TGI (NCI-H522 lung) | TGI (MCF7 breast) | TGI (SK-OV-3 ovarian) | TGI (SF-295 CNS) | TGI (NCI-H226 lung) | TGI (NCI-H460 lung) | TGI (NCI/ADR-RES ovarian) | TGI (MOLT-4 leukemia) | TGI (SF-268 CNS) | TGI (HL-60(TB) leukemia) | TGI (T-47D breast) | TGI (OVCAR-3 ovarian) | TGI (SNB-75 CNS) | TGI (DU-145 prostate) | TGI (SK-MEL-28 melanoma) | TGI (HCT-15 colon) | TGI (A549 NSCLC) | TGI (SN12C renal) | TGI (HOP-92 NSCLC) | TGI (M14 melanoma) | TGI (SNB-19 CNS) | TGI (COLO 205 colon) | TGI (MALME-3M melanoma) | TGI (SW-620 colon) | TGI (SR leukemia) | TGI (NCI-H23 lung) | TGI (KM12 colon) | TGI (MDA-MB-231 breast) | TGI (TK-10 renal) | TGI (OVCAR-5 ovarian) | TGI (UACC-62 melanoma) | TGI (RPMI-8226 leukemia) | TGI (A498 renal) | TGI (OVCAR-8 ovarian) | TGI (CCRF-CEM leukemia) | TGI (BT-549 breast) | TGI (OVCAR-4 ovarian) | TGI (HCT-116 colon) | TGI (MDA-MB-435) | TGI (CAKI-1 renal) | TGI (SK-MEL-2 melanoma) | TGI (HOP-62 NSCLC) | TGI (UO-31 renal) | TGI (HCC-2998 colon) | TGI (HS 578T breast) | TGI (UACC-257 melanoma) | TGI (786-0 renal) | TGI (K-562 leukemia) | TGI (IGROV1 ovarian) | TGI (EKVX NSCLC) | TGI (SF-539 CNS) | TGI (PC-3 prostate) | TGI (SK-MEL-5 melanoma) | TGI (ACHN renal) | TGI (HT29 colon) | TGI (LOX IMVI melanoma) | TGI (RXF 393 renal) | TGI (U251 CNS)

Cn1cc(C2=C(c3cn(C)c4cc(C(N)=O)ccc34)C(=O)NC2=O)c2ccccc21
6.17 µM: TGI (KM12 colon)
> 13.5 µM: TGI (HT29 colon)
> 20.9 µM: TGI (MOLT-4 leukemia)
13.8 µM: TGI (SN12C renal)
> 19.7 µM: TGI (IGROV1 ovarian)
3.2 µM: TGI (NCI-H522 lung)
4.02 µM: TGI (HS 578T breast)
> 16.8 µM: TGI (UACC-62 melanoma)
4.24 µM: TGI (SF-539 CNS)
> 18.3 µM: TGI (SF-268 CNS)
> 10.2 µM: TGI (DU-145 prostate)
inactive: GI50 (NCI-H522 lung) 0.471 µM | GI50 (MCF7 breast) 0.949 µM | GI50 (SK-OV-3 ovarian) 1.44 µM | GI50 (SF-295 CNS) 0.987 µM | GI50 (NCI-H226 lung) 4.29 µM | GI50 (NCI-H460 lung) 0.854 µM | GI50 (NCI/ADR-RES ovarian) 1.16 µM | GI50 (MOLT-4 leukemia) 1.83 µM | GI50 (SF-268 CNS) 1.74 µM | GI50 (HL-60(TB) leukemia) 0.769 µM | GI50 (T-47D breast) 1.98 µM | GI50 (OVCAR-3 ovarian) 0.608 µM | GI50 (SNB-75 CNS) 0.447 µM | GI50 (DU-145 prostate) 0.987 µM | GI50 (SK-MEL-28 melanoma) 2.66 µM | GI50 (HCT-15 colon) 1.19 µM | GI50 (A549 NSCLC) 1.66 µM | GI50 (SN12C renal) 1.91 µM | GI50 (HOP-92 NSCLC) 2.15 µM | GI50 (M14 melanoma) 1.08 µM | GI50 (SNB-19 CNS) 2.15 µM | GI50 (COLO 205 colon) 0.914 µM | GI50 (MALME-3M melanoma) 4.2 µM | GI50 (SW-620 colon) 1.27 µM | GI50 (SR leukemia) 0.656 µM | GI50 (NCI-H23 lung) 1.35 µM | GI50 (KM12 colon) 1.02 µM | GI50 (MDA-MB-231 breast) 2.88 µM | GI50 (TK-10 renal) 3.76 µM | GI50 (OVCAR-5 ovarian) 11.1 µM | GI50 (UACC-62 melanoma) 2.31 µM | GI50 (RPMI-8226 leukemia) 1.65 µM | GI50 (A498 renal) 0.47 µM | GI50 (OVCAR-8 ovarian) 1.67 µM | GI50 (CCRF-CEM leukemia) 0.951 µM | GI50 (BT-549 breast) 7.92 µM | GI50 (OVCAR-4 ovarian) 4.91 µM | GI50 (HCT-116 colon) 1.08 µM | GI50 (CAKI-1 renal) 0.831 µM | GI50 (SK-MEL-2 melanoma) 1.44 µM | GI50 (HOP-62 NSCLC) 1.67 µM | GI50 (UO-31 renal) 1.81 µM | GI50 (HCC-2998 colon) 5.17 µM | GI50 (HS 578T breast) 0.687 µM | GI50 (UACC-257 melanoma) 3.66 µM | GI50 (786-0 renal) 1.81 µM | GI50 (K-562 leukemia) 0.857 µM | GI50 (IGROV1 ovarian) 2.48 µM | GI50 (SF-539 CNS) 0.791 µM | GI50 (PC-3 prostate) 0.909 µM | GI50 (SK-MEL-5 melanoma) 0.751 µM | GI50 (ACHN renal) 2.64 µM | GI50 (HT29 colon) 0.924 µM | GI50 (LOX IMVI melanoma) 1.76 µM | GI50 (RXF 393 renal) 0.559 µM | GI50 (U251 CNS) 1.04 µM
13.7 µM: TGI (786-0 renal)
> 21 µM: TGI (TK-10 renal)
> 21.7 µM: TGI (NCI-H226 lung)
6.08 µM: TGI (COLO 205 colon)
> 21.6 µM: TGI (HCT-116 colon)
> 22.2 µM: TGI (SK-OV-3 ovarian)
3.39 µM: TGI (SK-MEL-5 melanoma)
1.95 µM: TGI (RXF 393 renal)
> 25 µM: TGI (MCF7 breast) | TGI (SF-295 CNS) | TGI (NCI/ADR-RES ovarian) | TGI (T-47D breast) | TGI (SK-MEL-28 melanoma) | TGI (HCT-15 colon) | TGI (A549 NSCLC) | TGI (M14 melanoma) | TGI (SNB-19 CNS) | TGI (MALME-3M melanoma) | TGI (SW-620 colon) | TGI (NCI-H23 lung) | TGI (OVCAR-5 ovarian) | TGI (OVCAR-8 ovarian) | TGI (CCRF-CEM leukemia) | TGI (BT-549 breast) | TGI (OVCAR-4 ovarian) | TGI (HOP-62 NSCLC) | TGI (HCC-2998 colon) | TGI (UACC-257 melanoma) | TGI (K-562 leukemia) | TGI (PC-3 prostate) | TGI (ACHN renal) | TGI (LOX IMVI melanoma) | TGI (U251 CNS)
19.9 µM: TGI (MDA-MB-231 breast)
> 22.8 µM: TGI (SR leukemia)
10.7 µM: TGI (CAKI-1 renal)
24.5 µM: TGI (HOP-92 NSCLC)
> 7.9 µM: TGI (SNB-75 CNS)
> 20.1 µM: TGI (UO-31 renal)
> 9.8 µM: TGI (NCI-H460 lung)
> 16.1 µM: TGI (SK-MEL-2 melanoma)
3.48 µM: TGI (HL-60(TB) leukemia)
2.06 µM: TGI (A498 renal)
1.57 µM: TGI (OVCAR-3 ovarian)
> 20.8 µM: TGI (RPMI-8226 leukemia)
